The target in this test is T1, human GR (Homo sapiens, UniProt P04150).
T1 sequence (P04150 1-777): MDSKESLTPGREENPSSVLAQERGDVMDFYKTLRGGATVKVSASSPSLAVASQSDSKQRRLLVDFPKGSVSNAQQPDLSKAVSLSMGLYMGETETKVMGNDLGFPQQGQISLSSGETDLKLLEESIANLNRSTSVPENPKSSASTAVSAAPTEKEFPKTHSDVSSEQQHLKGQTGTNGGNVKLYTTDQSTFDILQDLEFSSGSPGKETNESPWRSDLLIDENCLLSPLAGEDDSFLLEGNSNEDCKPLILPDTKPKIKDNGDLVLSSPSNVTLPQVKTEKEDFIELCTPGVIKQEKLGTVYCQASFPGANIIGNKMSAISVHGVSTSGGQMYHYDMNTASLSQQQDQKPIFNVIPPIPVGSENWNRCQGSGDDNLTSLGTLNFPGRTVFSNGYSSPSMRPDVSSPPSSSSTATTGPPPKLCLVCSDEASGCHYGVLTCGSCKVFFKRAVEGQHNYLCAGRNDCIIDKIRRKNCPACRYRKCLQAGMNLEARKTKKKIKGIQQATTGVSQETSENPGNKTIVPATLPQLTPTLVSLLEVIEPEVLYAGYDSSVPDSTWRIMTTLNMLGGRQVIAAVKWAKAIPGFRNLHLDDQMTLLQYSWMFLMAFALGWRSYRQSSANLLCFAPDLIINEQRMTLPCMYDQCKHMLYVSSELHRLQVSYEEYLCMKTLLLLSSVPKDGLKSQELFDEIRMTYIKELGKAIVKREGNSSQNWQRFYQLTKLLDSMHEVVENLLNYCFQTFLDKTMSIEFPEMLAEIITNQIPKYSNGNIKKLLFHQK
The experiment in a line: Trans-Activation Modulation of Glucocorticoid Receptor (GRAMMER), MMTV-LUC reporter, agonist mode. It counts as cell-based. Also noted: endogenous in cells. The following applies: for Emax: A549, A549 cells, maximum activity, read-out: Transactivation A549 Cells GRAMMER Emax; for EC50: A549 cells, inflection point, read-out: Transactivation A549 Cells GRAMMER IP. A digest of the protocol:
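Readout is luciferase from a modified MMTV LTR promoter after 24 h compound exposure alongside 10 nM dexamethasone (100% activity reference), DMSO ≤1%.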

Molecules are shown by their SMILES.

Turning to `Cn1cc(S(=O)(=O)N(CC(O)c2ccccn2)C[C@H]2CCC3=Cc4c(cnn4-c4ccc(F)cc4)C[C@@]32C)c(C(F)(F)F)n1` (stereo partly drawn) [Example 157, N-{[(4αR,5S)-1-(4-fluorophenyl)-4α-methyl-1,4,4α,5,6,7-hexahydrocyclopenta[f]indazol-5-yl]methyl}-N-(2-hydroxy-2-pyridin-2-ylethyl)-1-methyl-3-(trifluoromethyl)-1H-pyrazole-4-sulfonamide], the Emax amounted to 63.6% and the EC50 turned out to be 124 nM.
For `C[C@]12Cc3cnn(-c4ccc(F)cc4)c3C=C1CC[C@@H]2CN(CC=O)S(=O)(=O)c1ccccc1F` [Example 158, 2-fluoro-N-{[(4αR,5S)-1-(4-fluorophenyl)-4α-methyl-1,4,4α,5,6,7-hexahydrocyclopenta[f]indazol-5-yl]methyl}-N-(2-oxoethyl)benzenesulfonamide] the same measures were 36.2% and 747 nM.
In the same order, the values of `COC(=O)c1ccccc1CCN(C[C@H]1CCC2=Cc3c(cnn3-c3ccc(F)cc3)C[C@@]21C)S(=O)(=O)CC(F)(F)F` [Example 159, methyl 2-(2-{{[(4αR,5S)-1-(4-fluorophenyl)-4α-methyl-1,4,4α,5,6,7-hexahydrocyclopenta[f]indazol-5-yl]methyl}[(2,2,2-trifluoroethyl)sulfonyl]amino}ethyl)benzoate] are 28.9% and 367 nM.
On to `COC(=O)c1cc(Cl)ccc1CCN(C[C@H]1CCC2=Cc3c(cnn3-c3ccc(F)cc3)C[C@@]21C)S(=O)(=O)CC(F)(F)F` [Example 160, methyl 5-chloro-2-(2-{{[(4αR,5S)-1-(4-fluorophenyl)-4α-methyl-1,4,4α,5,6,7-hexahydrocyclopenta[f]indazol-5-yl]methyl}[(2,2,2-trifluoroethyl)sulfonyl]amino}ethyl)benzoate], for which the Emax was 4.3% and the EC50 was 547 nM.
For `Cc1noc(C)c1S(=O)(=O)NC[C@H]1CCC2=Cc3c(cnn3-c3ccc(F)cc3)C[C@@]21C` [Example 161, N-{[(4αR,5S)-1-(4-fluorophenyl)-4α-methyl-1,4,4α,5,6,7-hexahydrocyclopenta[f]indazol-5-yl]methyl}-3,5-dimethylisoxazole-4-sulfonamide] the same measures were 18.3% and 419 nM.
In the same order, the values of `COC(=O)c1ccccc1CS(=O)(=O)N(CC(O)C(F)(F)F)C[C@H]1CCC2=Cc3c(cnn3-c3ccc(F)cc3)C[C@@]21C` (stereo partly drawn) [Example 162, methyl 2-({[{[(4αR,5S)-1-(4-fluorophenyl)-4α-methyl-1,4,4α,5,6,7-hexahydrocyclopenta[f]indazol-5-yl]methyl}(3,3,3-trifluoro-2-hydroxypropyl)amino]sulfonyl}methyl)benzoate] are 87.1% and 323 nM.
For the compound `C[C@]12Cc3cnn(-c4ccc(F)cc4)c3C=C1CC[C@@H]2CN(CCc1ccccc1CO)S(=O)(=O)CC(F)(F)F` [Example 163, 2,2,2-trifluoro-N-{[(4αR,5S)-1-(4-fluorophenyl)-4α-methyl-1,4,4α,5,6,7-hexahydrocyclopenta[f]indazol-5-yl]methyl}-N-{2-[2-(hydroxymethyl)phenyl]ethyl}ethanesulfonamide], the Emax came to 48.4% and the EC50 stood at 241 nM.
In the same order, the values of `C[C@]12Cc3cnn(-c4ccc(F)cc4)c3C=C1CC[C@@H]2CN(CC(O)C(F)(F)F)S(=O)(=O)Cc1ccccc1C(=O)O` (stereo partly drawn) [Example 164, 2-({[{[(4αR,5S)-1-(4-fluorophenyl)-4α-methyl-1,4,4α,5,6,7-hexahydrocyclopenta[f]indazol-5-yl]methyl}(3,3,3-trifluoro-2-hydroxypropyl)amino]sulfonyl}methyl)benzoic acid] are 58.3% and 1080 nM.
Regarding `C[C@]12Cc3cnn(-c4ccc(F)cc4)c3C=C1CC[C@@H]2CN(CCc1ccccn1)S(=O)(=O)Cc1ccccn1` [Example 165, N-{[(4αR,5S)-1-(4-fluorophenyl)-4α-methyl-1,4,4α,5,6,7-hexahydrocyclopenta[f]indazol-5-yl]methyl}-1-pyridin-2-yl-N-(2-pyridin-2-ylethyl)methanesulfonamide], the Emax was 37.8% and the EC50 turned out to be 306 nM.
For `C[C@]12Cc3cnn(-c4ccc(F)cc4)c3C=C1CC[C@@H]2CN(CCc1ccccn1)S(=O)(=O)Cc1ccncc1` [Example 166, N-{[(4αR,5S)-1-(4-fluorophenyl)-4α-methyl-1,4,4α,5,6,7-hexahydrocyclopenta[f]indazol-5-yl]methyl}-1-pyridin-4-yl-N-(2-pyridin-2-ylethyl)methanesulfonamide] the same measures were 56.4% and 303 nM.
For `C[C@]12Cc3cnn(-c4ccc(F)cc4)c3C=C1CC[C@@H]2CN(CC(O)C(F)(F)F)S(=O)(=O)Cc1ccccc1C(N)=O` (stereo partly drawn) [Example 167, 2-({[{[(4αR,5S)-1-(4-fluorophenyl)-4α-methyl-1,4,4α,5,6,7-hexahydrocyclopenta[f]indazol-5-yl]methyl}(3,3,3-trifluoro-2-hydroxypropyl)amino]sulfonyl}methyl) benzamide] the same measures were 74.9% and 150 nM.
As to `Cc1noc(C)c1S(=O)(=O)N(C[C@H]1CCC2=Cc3c(cnn3-c3ccc(F)cc3)C[C@@]21C)C[C@@H](C)O` [Example 168, N-{[(4αR,5S)-1-(4-fluorophenyl)-4α-methyl-1,4,4α,5,6,7-hexahydrocyclopenta[f]indazol-5-yl]methyl}-N-[(2R)-2-hydroxypropyl]-3,5-dimethylisoxazole-4-sulfonamide], the Emax stood at 48.1% and the EC50 is 123 nM.

The values are drawn from US8299048B2, “Hexahydrocyclopentyl[f]indazole sulfonamides and derivatives thereof as selective glucocorticoid receptor modulators” (Merck Sharp & Dohme Corp., priority 2008, dated 2012).
